Results taken from paper PMC6395809 (Scientific Reports, 2019).
Where two headings read alike, the source gives them in different places.

Legend:
[1] = system: ErbB2-positive breast cancer patients; conditions: cited from earlier work
[2] = biological target: T1, interaction between GST_SH3_p130Cas and MBP_shortPPII_ErbB2 recombinant proteins (Homo sapiens, UniProt P56945); test: Competitive ELISA binding assay; type: biochemical; conditions: increasing concentration of compound
T1 construct: fragment of p130Cas protein (aminoacids 3–71); made in house; host or cells: Escherichia coli BL21
T1 sequence (P56945 3-71): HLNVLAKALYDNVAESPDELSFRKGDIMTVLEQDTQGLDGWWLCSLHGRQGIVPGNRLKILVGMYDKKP
Procedure: The day after, washing steps and saturation were performed using PBS and 3%BSA in PBS at room temperature. MBP-tagged ErbB2 purified recombinant proteins and MBP_ctrl (100 nM/well) were added in 100 μl/well of PBS for 2 h. After washing, anti-MBP mouse monoclonal antibody (0.25 μg/ml) was added for 2 h followed by peroxidase conjugated anti-mouse secondary antibody for 1 h.
For validation of inhibitory activity of selected compounds, ELISA binding assay was setup as reported above.

[3] = biological target: T2, GST_SH3_p130Cas recombinant protein (SH3 domain of p130Cas) (Homo sapiens, UniProt P56945); test: Fluorescence quenching of Fl-GST_SH3_p130Cas by compounds; type: binding
T2 construct: fragment of p130Cas protein (aminoacids 3–71); made in house; host or cells: Escherichia coli BL21
T2 sequence (P56945 3-71): T1 sequence (P56945 3-71)
Procedure: To experimentally validate the binding of compound 1 and 2 on GST_SH3_p130Cas recombinant protein, fluorescence quenching experiments were performed.
The fluorescence spectra of Fl-GST_SH3_p130Cas in the absence and in the presence of 1 and 2 at different concentrations are shown in Fig. 4C.
(§1) All fluorescence spectra were recorded with a Horiba Jobin Yvon Fluorolog3 TCSPC spectrofluorophotometer with 1.0 cm quartz cells For fluorescence experiments, GST_SH3_p130Cas was firstly tagged with fluorescein (Fl-GST_SH3_p130Cas) using a methodology described in the literature[34] see Supporting Information). […] Fluorescence emission spectra of Fl-GST_SH3_p130Cas in the presence of 1 and 2 were obtained using the following concentrations: Fl-GST_SH3_p130Cas = 0.7 μM; 1 and 2 = 0–21 μM.
(§2) The variation in fluorescence emission at 518 nm of Fl-GST_SH3_p130Cas was monitored in all experiments.
Fluorescence data analysis
The obtained spectroscopic data were analysed by a […] non linear least-squares fit procedures reported in Equation 2 2: […]
in which y is the binding derived by measuring fluorescence intensity, [Q] is the concentration of tested compound, Bmax is the maximum amount of protein/compound complex (Fl-GST_SH3_p130Cas/compound) formed at saturation and Kd is the equilibrium dissociation constant. […]

[4] = system: BT474 breast cancer cells; test: Cell proliferation assay (MTT), BT474; type: cell-based; conditions: Homo sapiens, BT-474, 72 h, BT474, 3 days
Procedure: (§3) For proliferation assay BT474, SKBR3 and SKH100 cells were seeded in 8 replicates at 1000 cells/well concentration (25% confluency) in four different 96-well cell culture plates and then incubated with increasing concentration of 1 and 2 for 3 days. Changes in proliferation rate were detected by MTT assay (11465007001 Roche, Cell Proliferation Kit I) following manufacturer instruction. Sterile DMSO was used as control for non-specific solvent effect on proliferation.

[5] = system: ErbB2-negative HEK 293T cells; test: Proliferation assay of ErbB2-negative HEK 293T cell line; type: cell-based, human; conditions: serial dilutions, three days, MTT
Procedure: Figure S5. Proliferation assay of ErbB2-negative HEK 293T cell line treated with inhibitory […]
To assess whether 1 and 2 could affect cell proliferation independently from p130Cas/ErbB2 inhibition, ErbB2 ErbB2-negative cell line, HEK 293T cells were treated with serial dilutions of 1 and 2 (or sterile DMSO). After three days, live cells were detected by standard MTT assay. […]
any effect even at high concentration.
(1 picture or pasted object on this page, not shown here)

[6] = system: BT474 cells; test: Cytotoxicity assay (MTT); type: cell-based, human; conditions: BT474, three days, serial dilutions 250-0.12 μM
Procedure: For cytotoxicity assay BT474 cells were seeded at 5000 cells/well concentration (100% confluency) in a 96-well cell culture plate and incubated with serial dilutions of 1 and 2 compounds (from 250 μM to 0.12 μM). Cytotoxicity was evaluated after 3 days by MTT assay (11465007001 Roche, Cell Proliferation Kit I) following manufacturer instruction.

[7] = biological target: T3, endogenous p130Cas/ErbB2 complex in BT474 cells (Homo sapiens, UniProt P56945); test: Co-immunoprecipitation of p130Cas/ErbB2 in BT474 cells; type: cell-based; conditions: BT474 cells pre-treated for 24 hours
T3 construct: endogenous p130Cas/ErbB2 complex in BT474 cells; host or cells: BT474
T3 sequence (P56945 1-870): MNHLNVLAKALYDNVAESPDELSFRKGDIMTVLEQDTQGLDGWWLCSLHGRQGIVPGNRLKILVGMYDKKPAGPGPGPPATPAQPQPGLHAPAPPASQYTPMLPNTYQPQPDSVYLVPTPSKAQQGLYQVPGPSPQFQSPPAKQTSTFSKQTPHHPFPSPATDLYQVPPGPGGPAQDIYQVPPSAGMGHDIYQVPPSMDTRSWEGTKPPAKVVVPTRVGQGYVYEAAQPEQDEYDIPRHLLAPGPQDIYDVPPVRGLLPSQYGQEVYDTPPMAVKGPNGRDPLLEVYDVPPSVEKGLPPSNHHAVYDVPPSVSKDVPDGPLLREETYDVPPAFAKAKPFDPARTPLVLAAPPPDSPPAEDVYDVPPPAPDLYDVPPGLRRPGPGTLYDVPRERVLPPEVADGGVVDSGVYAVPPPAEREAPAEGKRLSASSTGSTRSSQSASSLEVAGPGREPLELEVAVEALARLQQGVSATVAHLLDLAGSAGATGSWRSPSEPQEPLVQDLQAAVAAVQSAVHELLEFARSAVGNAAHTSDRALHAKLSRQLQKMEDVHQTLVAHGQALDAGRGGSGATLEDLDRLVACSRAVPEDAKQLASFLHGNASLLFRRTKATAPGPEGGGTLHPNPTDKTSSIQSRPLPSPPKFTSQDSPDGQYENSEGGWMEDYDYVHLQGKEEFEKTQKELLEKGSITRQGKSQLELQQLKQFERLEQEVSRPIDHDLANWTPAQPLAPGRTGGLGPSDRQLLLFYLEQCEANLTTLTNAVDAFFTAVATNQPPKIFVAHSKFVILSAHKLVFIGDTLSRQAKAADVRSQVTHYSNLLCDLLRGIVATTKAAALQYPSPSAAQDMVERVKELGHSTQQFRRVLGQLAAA
Procedure: GAPDH expression was used as loading control. Data are represented as mean ± SD. **p < 0.01, ***p < 0.001.
To assess whether these compounds could interfere with p130Cas/ErbB2 association in a cellular context, ErbB2-positive BT474 breast cancer cells were pre-treated for 24 hours with 1 or 2 and subjected to co-immunoprecipitation experiments.

[8] = system: SKBR3 breast cancer cells; test: Cell proliferation assay (MTT), SKBR3; type: cell-based; conditions: Homo sapiens, SK-BR-3, 72 h, SKBR3, 3 days
Procedure: as §3

[9] = system: SKH100 Trastuzumab-resistant cells; test: Combination with Trastuzumab in SKH100 Trastuzumab-resistant cells (MTT); type: cell-based, human; conditions: SKH100, Trastuzumab 100 μg/ml, three days
Procedure: (§4) Figure 6 Impact of 1 and 2 compounds on BT474 breast cancer cells. (A) To assess whether 1 and 2 could trigger cytotoxic effects on living cells, BT474 cells were treated with serial dilutions of 1 and 2 (or sterile DMSO). After three days, live cells were detected by standard MTT assay, highlighting the appearance of cytotoxic effects above 75 μM for compound 1. […] Cells were treated with different concentration of the 1 and 2 and proliferation was assayed three days later by performing MTT assay. Results were fitted with four-parameter dose-response curve using GraphPad Prism7 software. […] (E) SKBR3 cells were treated with Trastuzumab (25 μg/ml) either alone or in combination with compound 1 or 2 at the indicated doses. After three days, live cells were detected by standard MTT assay. Data are represented as mean ± SD. *p < 0.05, **p < 0.01. […] After three days, live cells were detected by standard MTT assay. […]
as §3, with “Sterile DMSO was used as control for non-specific solvent effect on proliferation.” left out

[10] = system: SKBR3 cells; test: Combination with Trastuzumab in SKBR3 cells (MTT); type: cell-based, human; conditions: SKBR3, Trastuzumab 25 μg/ml, three days
Procedure: as §4
as §3, with “Sterile DMSO was used as control for non-specific solvent effect on proliferation.” left out

[11] = biological target: T4, binding between Fl-GST_SH3_p130Cas and MBP_shortPPII_ErbB2 (Homo sapiens, UniProt P56945); test: Fluorescence experiment: MBP_shortPPII_ErbB2 added to Fl-GST_SH3_p130Cas/compound complex; conditions: compared to compound 2; MBP_shortPPII_ErbB2 0.1-0.75 μM
T4 construct: fragment of p130Cas protein (aminoacids 3–71); made in house; host or cells: Escherichia coli BL21
T4 sequence (P56945 3-71): T1 sequence (P56945 3-71)
Procedure: as §1, with “For” for “All fluorescence spectra were recorded with a Horiba Jobin Yvon Fluorolog3 TCSPC spectrofluorophotometer with 1.0 cm quartz cells For”
as §2

[12] = biological target: T5, MBP_shortPPII_ErbB2 (human (by the printed accession …, UniProt P04626-1 1103-1194)); test: other fluorescence titration; Fl-GST_SH3_p130Cas fixed at 3.0 μM, MBP_shortPPII_ErbB2 0.05–3.0 μM; emission at 518 nm; nonlinear least-squares fit; conditions: both partners purified
T5 construct: ErbB2 cytosolic portion, aminoacids 1103-1194, holds the polyproline type II motif V[RPQPPSP]R at 1145-1153 (isoform 1, P04626-1); the printed residue limits are kept; source: E. coli BL21, purified (Sepharose amylose column), dialyzed against PBS; not shown: MBP, N-terminal, kept

[13] = biological target: T6, MBP_R → D_shortPPII_ErbB2 (human (by the printed accession …, UniProt P04626-1 1103-1194, R to D at position 44 (position 1146 in the original ErbB2 sequence))); test: ELISA; direct binding: 100 nM/well of GST_SH3_p130Cas (or mutants) coated in PBS overnight at 4 °C; MBP-tagged ErbB2 proteins (100 nM/well) in PBS for 2 h; detected with anti-MBP; normalized on GST_ctrl and MBP_ctrl; conditions: both partners purified
T6 construct: ErbB2 cytosolic portion, aminoacids 1103-1194, with R to D at position 44 of the fragment (1146 in ErbB2); motif V[DPQPPSP]R; source: E. coli BL21, purified (Sepharose amylose column); not shown: MBP, N-terminal, kept

[14] = biological target: T5, MBP_shortPPII_ErbB2; test: far-Western, overlay or dot blot; 1 μl of GST-tagged p130Cas proteins spotted on nitrocellulose; probed with MBP-tagged ErbB2 protein (1 μg/ml) in Interaction Buffer (50 mM Tris-HCl pH7.4, 150 mM NaCl, 1%Triton-X100) at 4 °C overnight; detected with anti-MBP; conditions: both partners purified
[15] = biological target: T7, MBP_longPPII_ErbB2 (human (by the printed accession …, UniProt P04626-1 1103-1255)); test: co-IP; in vitro binding assay: GST-tagged p130Cas and MBP-tagged ErbB2 purified proteins mixed in Interaction Buffer with 1% BSA overnight at 4 °C; immunoprecipitated with anti-MBP and proteinA Sepharose; blot anti-GST; conditions: both partners purified
T7 construct: ErbB2 cytosolic portion, aminoacids 1103-1255 (isoform 1, P04626-1); the printed residue limits are kept; source: E. coli BL21, purified (Sepharose amylose column), dialyzed against PBS; not shown: MBP, N-terminal, kept

T-DM1
patients in whom treatment failed to induce response [1]: 57%

N#CC(Cc1ccc(O)cc1)c1ccc(O)cc1 (stereo not drawn) [DPN, Diarylpropionitrile, reference compound]
inhibition of GST_SH3_p130Cas/MBP_shortPPII_ErbB2 association [2]: no modulation

NS(=O)(=O)N[C@H]1CCCc2ccccc21 [Compound 2]
inhibition of GST_SH3_p130Cas/MBP_shortPPII_ErbB2 association [2]: dose-dependent inhibition
Kd ([3]; fluorescence quenching of Fl-GST_SH3_p130Cas, emission at 518 nm, nonlinear least-squares fit, read-out: KD (equilibrium dissociation constant)): 5 µM
EC50 [4]: 240 ± 26 µM
effect on cell proliferation [5]: did not have
concentration at which cytotoxic effects appear [6]: > 250 µM
association of p130Cas to ErbB2 (co-immunoprecipitation) [7]: reduced the association
EC50 [8]: 274 ± 27.2 µM

O=C(CNC(=O)NC1CC1)Nc1nnc(C23CC4CC(CC(C4)C2)C3)s1 [Compound 1]
inhibition of GST_SH3_p130Cas/MBP_shortPPII_ErbB2 association [2]: dose-dependent inhibition
effect on sensitivity of resistant cells to Trastuzumab [9]: partially restores
Kd [3]: 0.2 µM
EC50 [4]: 52.3 ± 6.38 µM
effect on cell proliferation [5]: no significant effect
association of p130Cas to ErbB2 (co-immunoprecipitation) [7]: reduced the association
effect on efficacy of Trastuzumab treatment [10]: significantly enhances
efficiency in preventing binding between Fl-GST_SH3_p130Cas and MBP_shortPPII_ErbB2 [11]: more efficient

B1: Fl-GST_SH3_p130Cas (domain or fragment, UniProt P56945 3-71, looked up)
chain: T1 sequence (P56945 3-71)
modifications: also: fluorescein (site not given here)
notes: source: E. coli BL21, purified (Sepharose glutathione column), then tagged with fluorescein; not shown: GST, N-terminal, kept
Kd [12]: 0.0407 µM

B2: GST_SH3_p130Cas (domain or fragment, UniProt P56945 3-71, looked up)
chain: T1 sequence (P56945 3-71)
notes: p130Cas SH3 domain, aminoacids 3-71, amplified from cDNA and cloned in pGEX-4T3; also called SH3 domain of p130Cas; source: E. coli BL21, purified (Sepharose glutathione column), dialyzed against PBS; not shown: GST, N-terminal, kept
binding result [13]: binds
binding result [14]: binds
binding result [15]: binds
